For 17 molecules, pest or weed control and YFM rating results are on record in patent US10251394B2, “Molecules having pesticidal utility, and intermediates, compositions, and processes, related thereto” (Dow AgroSciences LLC, priority 2016, dated 2019).

What all share (format): in vivo
For assay [1], the system named is Beet Armyworm (Spodoptera exigua). Kind of assay: Bioassay on Beet Armyworm (BAW), 128-well diet tray assay. The settings on record: Beet Armyworm, Table ABC, read-out: BAW rating. Summed up: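 Second-instar larvae (one to five per well) placed on artificial diet surface-treated with 50 μg/cm^2 test molecule in 90:10 acetone-water, dried, eight wells per molecule. Held at 25° C, 14:10 light-dark, five to seven days; percent mortality recorded per well and averaged across the eight wells.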

Assay [2] has as its system Yellow Fever Mosquito (Aedes aegypti). Kind of assay: Bioassay on Yellow Fever Mosquito (YFM) larvae, 96-well plate. The conditions noted are these: Table ABC. The protocol:
Example C: Bioassays on Yellow Fever Mosquito (Aedes Aegypti, AEDSAE) (“YFM”)
Certain molecules disclosed in this document were tested against YFM using procedures described in the following paragraph. In the reporting of the results, the “GPA & YFM Rating Table” was used (See Table Section).
Master plates containing 400 μg of a molecule dissolved in 100 μL of dimethyl sulfoxide (DMSO) (equivalent to a 4000 ppm solution) are used. A master plate of assembled molecules contains 15 μL per well. To this plate, 135 μL of a 90:10 water:acetone mixture is added to each well. A robot (Biomek® NXP Laboratory Automation Workstation) is programmed to dispense 15 μL aspirations from the master plate into an empty 96-well shallow plate (“daughter” plate). There are 6 reps (“daughter” plates) created per master. The created daughter plates are then immediately infested with YFM larvae.
The day before plates are to be treated, mosquito eggs are placed in Millipore water containing liver powder to begin hatching (4 g. into 400 mL). After the daughter plates are created using the robot, they are infested with 220 μL of the liver powder/larval mosquito mixture (about 1 day-old larvae). After plates are infested with mosquito larvae, a non-evaporative lid is used to cover the plate to reduce drying. Plates are held at room temperature for 3 days prior to grading. After 3 days, each well is observed and scored based on mortality. The results are indicated in the table entitled “Table ABC: Biological Results” (See Table Section).

Assay [3] has as its system Cabbage Looper (Trichoplusia ni). Kind of assay: Bioassay on Cabbage Looper (CL), 128-well diet tray assay. The conditions noted are these: Cabbage Looper, Table ABC, read-out: CL rating. Summed up: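 Second-instar larvae, one to five per well, placed on artificial diet surface-treated with 50 μg/cm^2 compound in acetone-water, eight wells per compound. Held 5-7 days at 25° C, 14:10 light-dark; percent mortality per well averaged across wells.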

Regarding `CCN1OC[C@@H](NC(=O)c2ccc(/C(F)=C/C(c3cc(Cl)c(Cl)c(Cl)c3)C(F)(F)F)cc2C(F)(F)F)C1=O` (stereo partly drawn) [F53, N—((R)-2-Ethyl-3-oxoisoxazolidin-4-yl)-4-((Z)-1,4,4,4-tetrafluoro-3-(3,4,5-trichlorophenyl)but-1-en-1-yl)-2-(trifluoromethyl)benzamide], the pest or weed control at 50 µg/cm2 in assay [1] and in assay [3] was 50 to 100% in each case. The YFM rating result in assay [2] is reported as “A (80-100)”.

Take `C[C@@H](NC(=O)c1ccc(/C(F)=C/C(c2cc(Cl)c(Br)c(Cl)c2)C(F)(F)F)cc1C(F)(F)F)C(=O)NCC(F)(F)F` (stereo partly drawn) [F59, 4-((Z)-3-(4-Bromo-3,5-dichlorophenyl)-1,4,4,4-tetrafluorobut-1-en-1-yl)-N—((R)-1-oxo-1-((2,2,2-trifluoroethyl)amino)propan-2-yl)-2-(trifluoromethyl)benzamide]: the pest or weed control at 50 µg/cm2 in assay [1] and in assay [3] was 50 to 100% each time. In addition, the YFM rating entry in assay [2] was “A (80-100)”.

On to `O=C(NC1(C(=O)NCC(F)(F)F)CC1)c1ccc(/C(F)=C/C(c2cc(Cl)c(Br)c(Cl)c2)C(F)(F)F)cc1C(F)(F)F` (stereo not drawn) [F60, (Z)-4-(3-(4-Bromo-3,5-dichlorophenyl)-1,4,4,4-tetrafluorobut-1-en-1-yl)-N-(1-((2,2,2-trifluoroethyl)carbamoyl)cyclopropyl)-2-(trifluoromethyl)benzamide], for which the pest or weed control at 50 µg/cm2 in assay [1] and in assay [3] was 50 to 100% throughout. Moreover, the YFM rating entry in assay [2] is reported as “A (80-100)”.

With `C=Cc1c(Cl)cc(C(/C=C(\F)c2ccc(C(=O)NCC(=O)NCC(F)(F)F)c(C(F)(F)F)c2)C(F)(F)F)cc1Cl` (stereo not drawn) [F61, (Z)-4-(3-(3,5-Dichloro-4-vinylphenyl)-1,4,4,4-tetrafluorobut-1-en-1-yl)-N-(2-oxo-2-((2,2,2-trifluoroethyl)amino)ethyl)-2-(trifluoromethyl)benzamide], the pest or weed control at 50 µg/cm2 in assay [1] and in assay [3] was 50 to 100% each time. For the same molecule, the YFM rating entry in assay [2] is on record as “A (80-100)”.

With `CN(CC(=O)NCC(F)(F)F)C(=O)c1ccc(/C(F)=C/C(c2cc(Cl)c(Cl)c(Cl)c2)C(F)(F)F)cc1C(F)(F)F` (stereo not drawn) [F68, (Z)—N-Methyl-N-(2-oxo-2-((2,2,2-trifluoroethyl)amino)ethyl)-4-(1,4,4,4-tetrafluoro-3-(3,4,5-trichlorophenyl)but-1-en-1-yl)-2-(trifluoromethyl)benzamide], the pest or weed control at 50 µg/cm2 in assay [1] and in assay [3] was 50 to 100% each time. For the same molecule, in assay [2], the YFM rating entry was “A (80-100)”.

On to `Cc1cc(C(/C=C(\F)c2ccc(C(=O)N[C@H](C)C(=O)NCC(F)(F)F)c(C(F)(F)F)c2)C(F)(F)F)cc(C)c1Cl` (stereo partly drawn) [F69, 4-((Z)-3-(4-Chloro-3,5-dimethylphenyl)-1,4,4,4-tetrafluorobut-1-en-1-yl)-N—((R)-1-oxo-1-((2,2,2-trifluoroethyl)amino)propan-2-yl)-2-(trifluoromethyl)benzamide], for which the pest or weed control at 50 µg/cm2 in assay [1] and in assay [3] was 50 to 100% in each case. For the same molecule, the YFM rating result in assay [2] is reported as “A (80-100)”.

Consider `Cc1cc(C(/C=C(\F)c2ccc(C(=O)NC3(C(=O)NCC(F)(F)F)CC3)c(C(F)(F)F)c2)C(F)(F)F)cc(C)c1Cl` (stereo not drawn) [F70, (Z)-4-(3-(4-Chloro-3,5-dimethylphenyl)-1,4,4,4-tetrafluorobut-1-en-1-yl)-N-(1-((2,2,2-trifluoroethyl)carbamoyl)cyclopropyl)-2-(trifluoromethyl)benzamide], for which the pest or weed control at 50 µg/cm2 in assay [1] and in assay [3] was 50 to 100% in each case. The YFM rating entry in assay [2] is listed as “A (80-100)”.

Consider `Cc1cc(C(/C=C(\F)c2ccc(C(=O)NCC(=O)NCC(F)(F)F)c(C(F)(F)F)c2)C(F)(F)F)cc(C)c1Cl` (stereo not drawn) [F71, (Z)-4-(3-(4-Chloro-3,5-dimethylphenyl)-1,4,4,4-tetrafluorobut-1-en-1-yl)-N-(2-oxo-2-((2,2,2-trifluoroethyl)amino)ethyl)-2-(trifluoromethyl)benzamide], for which the pest or weed control at 50 µg/cm2 in assay [1] and in assay [3] was 50 to 100% throughout. Moreover, in assay [2], the YFM rating entry was “B (More than 0-Less than 80)”.

For the molecule `C[C@@H](NC(=O)c1ccc(/C(F)=C/C(c2cc(Cl)cc(Cl)c2)C(F)(F)F)cc1C(F)(F)F)C(=O)N(C)CC(F)(F)F` (stereo partly drawn) [F72, 4-((Z)-3-(3,5-Dichlorophenyl)-1,4,4,4-tetrafluorobut-1-en-1-yl)-N—((R)-1-(methyl(2,2,2-trifluoroethyl)amino)-1-oxopropan-2-yl)-2-(trifluoromethyl)benzamide], the pest or weed control at 50 µg/cm2 in assay [1] and in assay [3] was 50 to 100% in each case. Also, in assay [2], the YFM rating entry is listed as “A (80-100)”.

Take `C[C@@H](NC(=O)c1ccc(/C(F)=C/C(c2ccc(Cl)c(Cl)c2)C(F)(F)F)cc1C(F)(F)F)C(=O)N(C)CC(F)(F)F` (stereo partly drawn) [F73, 4-((Z)-3-(3,4-Dichlorophenyl)-1,4,4,4-tetrafluorobut-1-en-1-yl)-N—((R)-1-(methyl(2,2,2-trifluoroethyl)amino)-1-oxopropan-2-yl)-2-(trifluoromethyl)benzamide]: the pest or weed control at 50 µg/cm2 in assay [1] and in assay [3] was 50 to 100% throughout. Also, the YFM rating entry in assay [2] is recorded as “A (80-100)”.

Turning to `CN(CC(F)(F)F)C(=O)CNC(=O)c1ccc(/C(F)=C/C(c2ccc(Cl)c(Cl)c2)C(F)(F)F)cc1C(F)(F)F` (stereo not drawn) [F74, (Z)-4-(3-(3,4-Dichlorophenyl)-1,4,4,4-tetrafluorobut-1-en-1-yl)-N-(2-(methyl(2,2,2-trifluoroethyl)amino)-2-oxoethyl)-2-(trifluoromethyl)benzamide], the pest or weed control at 50 µg/cm2 in assay [1] and in assay [3] was 50 to 100% each time. In addition, the YFM rating result in assay [2] was “A (80-100)”.

For `CN(CC(F)(F)F)C(=O)CNC(=O)c1ccc(/C(F)=C/C(c2cc(Cl)c(Br)c(Cl)c2)C(F)(F)F)cc1C(F)(F)F` (stereo not drawn) [F75, (Z)-4-(3-(4-Bromo-3,5-dichlorophenyl)-1,4,4,4-tetrafluorobut-1-en-1-yl)-N-(2-(methyl(2,2,2-trifluoroethyl)amino)-2-oxoethyl)-2-(trifluoromethyl)benzamide], the pest or weed control at 50 µg/cm2 in assay [1] and in assay [3] was 50 to 100% throughout. Moreover, the YFM rating entry in assay [2] is “A (80-100)”.

Take `C[C@@H](NC(=O)c1ccc(/C(F)=C/C(c2cc(Cl)c(Br)c(Cl)c2)C(F)(F)F)cc1C(F)(F)F)C(=O)N(C)CC(F)(F)F` (stereo partly drawn) [F76, 4-((Z)-3-(4-Bromo-3,5-dichlorophenyl)-1,4,4,4-tetrafluorobut-1-en-1-yl)-N—((R)-1-(methyl(2,2,2-trifluoroethyl)amino)-1-oxopropan-2-yl)-2-(trifluoromethyl)benzamide]: the pest or weed control at 50 µg/cm2 in assay [1] and in assay [3] was 50 to 100% each time. Besides, the YFM rating entry in assay [2] is “A (80-100)”.

On to `CN(CC(F)(F)F)C(=O)CNC(=O)c1ccc(/C(F)=C/C(c2cc(Br)c(Cl)c(Br)c2)C(F)(F)F)cc1C(F)(F)F` (stereo not drawn) [F77, (Z)-4-(3-(3,5-Dibromo-4-chlorophenyl)-1,4,4,4-tetrafluorobut-1-en-1-yl)-N-(2-(methyl(2,2,2-trifluoroethyl)amino)-2-oxoethyl)-2-(trifluoromethyl)benzamide], for which the pest or weed control at 50 µg/cm2 in assay [1] and in assay [3] was 50 to 100% in each case. The YFM rating result in assay [2] is reported as “A (80-100)”.

In the case of `C[C@@H](NC(=O)c1ccc(/C(F)=C/C(c2cc(Br)c(Cl)c(Br)c2)C(F)(F)F)cc1C(F)(F)F)C(=O)N(C)CC(F)(F)F` (stereo partly drawn) [F78, 4-((Z)-3-(3,5-Dibromo-4-chlorophenyl)-1,4,4,4-tetrafluorobut-1-en-1-yl)-N—((R)-1-(methyl(2,2,2-trifluoroethyl)amino)-1-oxopropan-2-yl)-2-(trifluoromethyl)benzamide], the pest or weed control at 50 µg/cm2 in assay [1] and in assay [3] was 50 to 100% in each case. Besides, the YFM rating result in assay [2] is on record as “A (80-100)”.

As for `C[C@@H](NC(=O)c1ccc(/C(F)=C/C(c2ccc(Br)c(Br)c2)C(F)(F)F)cc1C(F)(F)F)C(=O)NCC(F)(F)F` (stereo partly drawn) [F79, 4-((Z)-3-(3,4-Dibromophenyl)-1,4,4,4-tetrafluorobut-1-en-1-yl)-N—((R)-1-oxo-1-((2,2,2-trifluoroethyl)amino)propan-2-yl)-2-(trifluoromethyl)benzamide], the pest or weed control at 50 µg/cm2 in assay [1] and in assay [3] was 50 to 100% throughout. For the same molecule, the YFM rating entry in assay [2] is “A (80-100)”.

On to `O=C(NC1(C(=O)NCC(F)(F)F)CC1)c1ccc(/C(F)=C/C(c2ccc(Br)c(Br)c2)C(F)(F)F)cc1C(F)(F)F` (stereo not drawn) [F80, (Z)-4-(3-(3,4-Dibromophenyl)-1,4,4,4-tetrafluorobut-1-en-1-yl)-N-(1-((2,2,2-trifluoroethyl)carbamoyl)cyclopropyl)-2-(trifluoromethyl)benzamide], for which the pest or weed control at 50 µg/cm2 in assay [1] and in assay [3] was 50 to 100% each time. For the same molecule, the YFM rating result in assay [2] is “A (80-100)”.
